The text below walks through data of patent US5948791A, “Quinoline derivatives for treating malaria” (Hoffmann-La Roche Inc., priority 1995, dated 1999).

Assay [1] has as its system Plasmodium berghei. The assay can be described thus: animal or person. It counts as in vivo, Plasmodium berghei (strain ANKA) in mice. Conditions: Plasmodium berghei, mice, blood smears 48 h after treatment. An outline of the steps: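 Male albino mice (~25 g) infected i.v. on D0 with P. berghei ANKA (0.2 ml of 10^8 parasitized erythrocytes/ml); single s.c. and p.o. dose 24 h post-infection, 10 mg/kg screen then titration.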

Assay [2] concerns Plasmodium falciparum strain NF54. The assay can be described thus: Growth inhibition of Plasmodium falciparum NF54 (chloroquine-sensitive) in vitro, [G-3H]-hypoxanthin incorporation. It counts as cell-based. The following applies: chloroquine-sensitive strain NF54, 72 h, read-out: IC50 for P. falciparum NF54. An outline of the steps: (§1)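 Asynchronous intraerythrocytic cultures in human A+ erythrocytes (0.7% parasitemia, 2.5% suspension) in RPMI 1640 with HEPES, NaHCO3 and human serum, exposed to compound titrated over 6-7 steps for 72 h at 37° C, 3% O2. Growth by [G-3H]-hypoxanthin incorporation against untreated controls; IC50 by logit regression.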

Assay [3] deals with Plasmodium falciparum K1. Kind of assay: Growth inhibition of Plasmodium falciparum K1 (chloroquine-resistant) in vitro, [G-3H]-hypoxanthin incorporation. Type of assay: cell-based, Plasmodium falciparum (strain K1). The following applies: for IC50: Plasmodium falciparum, K1, 72 h, read-out: IC50 for P. falciparum K1; for Resistance index: ratio of the IC50 for K1 and the IC50 for NF54. Put shortly: as §1

The mark [4] stands for this setting: po, single peroral dose of 10 mg/kg, read-out: Growth inhibition in % after po administration (GI%, percentage reduction of the parasitemia).
Setting [5] is: sc, single subcutaneous dose of 10 mg/kg, read-out: Growth inhibition in % after sc administration (GI%, percentage reduction of the parasitemia).

Values after ≈ are worked out from the molar mass of the structure shown. Read-outs that look alike come from different tables or passages of the source.

The IC50 is the concentration needed to halve the response being measured. Consider `Cl.Cl.Clc1ccc2c(N[C@H]3CC[C@H](NCCc4c(Cl)cccc4Cl)CC3)ccnc2c1` [Example 101, trans-N1-(7-Chloro-quinolin-4-yl)-N4-[2-(2,6-dichloro-phenyl)-ethyl]-cyclohexane-1,4-diamine dihydrochloride], for which the inhibition in vivo at 10 mg/kg in assay [1] (setting [4]) was 72%; in assay [1] (setting [5]), 84%. Also, the IC50 in assay [2] was determined as 2.7 ng/mL; in assay [3], 2.9 ng/mL. In addition, the Resistance index in assay [3] turned out to be 1.1.

Turning to `Cl.Cl.Clc1ccc2c(N[C@H]3CC[C@H](NCc4ccc(Cl)c(Cl)c4)CC3)ccnc2c1` [Example 102, trans N1-(7-Chloro-quinolin-4-yl)-N4-(3,4-dichloro-benzyl)-cyclohexane-1,4-diamine dihydrochloride], the inhibition in vivo at 10 mg/kg in assay [1] (setting [4]) was 72%; in assay [1] (setting [5]), 81%. Moreover, the IC50 in assay [2] was 2.1 ng/mL; in assay [3], 3.6 ng/mL. Also, in assay [3], the Resistance index is listed as 1.7.

Take `Cl.Cl.Clc1ccc2c(N[C@H]3CC[C@H](NCc4ccc5c(c4)OCO5)CC3)ccnc2c1` [Example 103, trans-N1 -Benzo[1,3]dioxol-5-ylmethyl-N4-(7-chloro-quinolin-4-yl)-cyclohexane-1,4-diamine dihydrochloride]: the inhibition in vivo at 10 mg/kg in assay [1] (setting [4]) was found to be 89%; in assay [1] (setting [5]), 99.8%. The figures for the IC50 in assay [2] and in assay [3] were 2.1 ng/mL and 4.6 ng/mL, respectively. The Resistance index in assay [3] is recorded as 2.2.

On to `COc1cc(CCN[C@H]2CC[C@H](Nc3ccnc4cc(Cl)ccc34)CC2)ccc1O.Cl.Cl` [Example 104, trans-4-{2-[4-(7-Chloro-quinolin-4-ylamino)-cyclohexylamino]-ethyl}-2-methoxy-phenol dihydrochloride], for which the values for the inhibition in vivo at 10 mg/kg in assay [1] (setting [4]) and in assay [1] (setting [5]) were 63% and 100%, respectively. The IC50 was 3.6 ng/mL in assay [2] and 20.2 ng/mL in assay [3]. Also, the Resistance index in assay [3] came out at 5.6.

As for `COc1cccc(CCN[C@H]2CC[C@H](Nc3ccnc4cc(Cl)ccc34)CC2)c1OC.Cl.Cl` [Example 105, trans-N1-(7-Chloro-quinolin-4-yl)-N4-[2-(2,3-dimethoxy-phenyl)-ethyl]-cyclohexane-1,4-diamine dihydrochloride], the figures for the inhibition in vivo at 10 mg/kg in assay [1] (setting [4]) and in assay [1] (setting [5]) were 55% and 99%, respectively. For the same molecule, the IC50 is 3.4 ng/mL in assay [2] and 15.3 ng/mL in assay [3]. The Resistance index in assay [3] is given as 4.5.

For the molecule `COc1cc(CN[C@H]2CC[C@H](Nc3ccnc4cc(Cl)ccc34)CC2)cc(OC)c1` [Example 106, trans-N1-(7-Chloro-quinolin-4-yl)-N4-(3,5-dimethoxy-benzyl)-cyclohexane-1,4-diamine], the results for the inhibition in vivo at 10 mg/kg in assay [1] (setting [4]) and in assay [1] (setting [5]) were 98% and 99.5%, respectively. Besides, the results for the IC50 in assay [2] and in assay [3] were 1.5 ng/mL (≈ 3.52 nM) and 4.4 ng/mL (≈ 10.3 nM), respectively. Besides, the Resistance index in assay [3] is reported as 2.9.

Take `Cl.Cl.Clc1cccc(CN[C@H]2CC[C@H](Nc3ccnc4cc(Cl)ccc34)CC2)c1` [Example 107, trans-N1-(3-Chloro-benzyl)-N4-(7-chloro-quinolin-4-yl)-cyclohexane-1,4-diamine dihydrochloride]: the results for the inhibition in vivo at 10 mg/kg in assay [1] (setting [4]) and in assay [1] (setting [5]) were 84% and 95%, respectively. Moreover, the IC50 in assay [2] worked out at 1.4 ng/mL; in assay [3], 3.4 ng/mL. Further, the Resistance index in assay [3] came to 2.4.

With `COc1cc(OC)c(CN[C@H]2CC[C@H](Nc3ccnc4cc(Cl)ccc34)CC2)c(OC)c1.Cl.Cl` [Example 108, trans N1-(7-Chloro-quinolin-4-yl)-N4-(2,4,6-trimethoxy-benzyl)-cyclohexane-1,4-diamine dihydrochloride], the inhibition in vivo at 10 mg/kg in assay [1] (setting [4]) turned out to be 110%; in assay [1] (setting [5]), 100%. Also, the results for the IC50 in assay [2] and in assay [3] were 4.6 ng/mL and 18.4 ng/mL, respectively. Besides, the Resistance index in assay [3] stood at 4.0.

Consider `Cl.Cl.Clc1ccc(CN[C@H]2CC[C@H](Nc3ccnc4cc(Cl)ccc34)CC2)c(Cl)c1` [Example 109, trans-N1-(7-Chloro-quinolin-4-yl)-N4-(2,4-dichloro-benzyl)-cyclohexane-1,4-diamine dihydrochloride], for which the figures for the inhibition in vivo at 10 mg/kg in assay [1] (setting [4]) and in assay [1] (setting [5]) were 75% and 91%, respectively. The IC50 in assay [2] stood at 1.8 ng/mL; in assay [3] it was 3.8 ng/mL. The Resistance index in assay [3] came to 2.1.

For `COc1ccc(CN[C@H]2CC[C@H](Nc3ccnc4cc(Cl)ccc34)CC2)cc1OC.Cl.Cl` [Example 110, trans-N1-(7-Chloro-quinolin-4-yl)-N4-(3,4-dimethoxy-benzyl)-cyclohexane-1,4-diamine dihydrochloride], the inhibition in vivo at 10 mg/kg in assay [1] (setting [4]) came out at 45%; in assay [1] (setting [5]) it was 99.6%. The IC50 in assay [2] amounted to 2.8 ng/mL; in assay [3], 17.2 ng/mL. The Resistance index in assay [3] was 6.1.

Turning to `COc1ccc(CN[C@H]2CC[C@H](Nc3ccnc4cc(Cl)ccc34)CC2)c(OC)c1.Cl.Cl` [Example 111, trans-N1 (7-Chloro-quinolin-4-yl)-N4-(2,4-dimethoxy-benzyl)-cyclohexane-1,4-diamine dihydrochloride], the figures for the inhibition in vivo at 10 mg/kg in assay [1] (setting [4]) and in assay [1] (setting [5]) were 25% and 99.8%, respectively. The IC50 in assay [2] was 2.9 ng/mL; in assay [3], 10.4 ng/mL. For the same molecule, the Resistance index in assay [3] is reported as 3.6.

Consider `COc1cc(CN[C@H]2CC[C@H](Nc3ccnc4cc(Cl)ccc34)CC2)cc(OC)c1OC.Cl.Cl` [Example 112, trans-N1-(7-Chloro-quinolin-4-yl)-N4-(3,4,5-trimethoxy-benzyl)-cyclohexane-1,4-diamine dihydrochloride], for which the inhibition in vivo at 10 mg/kg in assay [1] (setting [4]) stood at 99%; in assay [1] (setting [5]), 99.9%. In addition, the IC50 in assay [2] worked out at 4.3 ng/mL; in assay [3], 17.2 ng/mL. Further, the Resistance index in assay [3] worked out at 4.0.

Consider `CN(C)c1ccc(CN[C@H]2CC[C@H](Nc3ccnc4cc(Cl)ccc34)CC2)cc1.Cl.Cl.Cl` [Example 113, trans-N1-(7-Chloro-quinolin-4-yl)-N4-(4-dimethylamino-benzyl)-cyclohexane-1,4-diamine trihydrochloride], for which the inhibition in vivo at 10 mg/kg in assay [1] (setting [4]) turned out to be 99.7%; in assay [1] (setting [5]), 99.9%. The IC50 in assay [2] came to 3 ng/mL; in assay [3], 7.6 ng/mL. Besides, the Resistance index in assay [3] was determined as 2.5.

With `Cl.Cl.Fc1cccc(F)c1CN[C@H]1CC[C@H](Nc2ccnc3cc(Cl)ccc23)CC1` [Example 114, trans-N1-(7-Chloro-quinolin-4-yl)-N4-(2,6-difluoro-benzyl)-cyclohexane-1,4-diamine dihydrochloride], the inhibition in vivo at 10 mg/kg in assay [1] (setting [4]) was determined as 99%; in assay [1] (setting [5]) it was 99.9%. Moreover, the half-inhibitory concentration (IC50) stood at 2.9 ng/mL in assay [2] and 8.4 ng/mL in assay [3]. The Resistance index in assay [3] is 2.9.
